How the values were obtained:
[1] = target: T1, Muscarinic acetylcholine receptor M4 (Homo sapiens) (UniProt P08173); conditions: Flp-In-CHO, dose 10.0 µM, time 8.0 min
T1 sequence (whole entry): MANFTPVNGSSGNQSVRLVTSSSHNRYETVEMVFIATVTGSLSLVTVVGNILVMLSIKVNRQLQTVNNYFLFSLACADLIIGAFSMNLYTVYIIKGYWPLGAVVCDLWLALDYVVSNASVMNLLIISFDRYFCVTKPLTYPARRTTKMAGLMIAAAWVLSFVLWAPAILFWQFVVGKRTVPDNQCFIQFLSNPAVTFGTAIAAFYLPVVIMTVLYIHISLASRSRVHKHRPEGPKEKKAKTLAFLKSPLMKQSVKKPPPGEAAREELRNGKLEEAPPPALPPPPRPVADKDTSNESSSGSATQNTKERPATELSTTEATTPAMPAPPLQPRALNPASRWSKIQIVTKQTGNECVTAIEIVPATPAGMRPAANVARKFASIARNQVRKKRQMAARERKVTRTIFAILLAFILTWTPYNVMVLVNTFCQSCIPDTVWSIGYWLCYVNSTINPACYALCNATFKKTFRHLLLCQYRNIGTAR

[2] = target: T1, Muscarinic acetylcholine receptor M4 (Homo sapiens); conditions: Flp-In-CHO, filed as positive allosteric modulator, time 8.0 min
[3] = target: T1, Muscarinic acetylcholine receptor M4 (Homo sapiens); conditions: Flp-In-CHO, filed as positive allosteric modulator, time 8.0 min; remark: listed apart in the source
[4] = target: T1, Muscarinic acetylcholine receptor M4 (Homo sapiens); conditions: Flp-In-CHO, filed as positive allosteric modulator, time 8.0 min; remark: listed apart in the source
[5] = target: T1, Muscarinic acetylcholine receptor M4 (Homo sapiens); conditions: Flp-In-CHO
Description: Positive allosteric modulation at human M4 mAChR stably expressed in Flp-In-CHO cells co-transfected with CAMYEL biosensor assessed as ACh-induced CAMYEL activation by measuring log of operational efficacy by BRET assay

[6] = target: T1, Muscarinic acetylcholine receptor M4 (Homo sapiens); conditions: Flp-In-CHO, filed as positive allosteric modulator
Description: Positive allosteric modulation at human M4 mAChR stably expressed in Flp-In-CHO cells co-transfected with CAMYEL biosensor assessed as ACh-induced CAMYEL activation by measuring log of functional co-operativity by BRET assay

[7] = target: T1, Muscarinic acetylcholine receptor M4 (Homo sapiens); conditions: Flp-In-CHO, time 5.0 min
[8] = target: T1, Muscarinic acetylcholine receptor M4 (Homo sapiens); conditions: Flp-In-CHO, filed as positive allosteric modulator, time 5.0 min
[9] = filed as positive allosteric modulator

deltapEC50 [1] | pKb [2] | log(activity) [3] | log(activity) [4] | log(activity) [5, 9] | log(activity) [6] | log(activity) [5] | log(activity) [7, 9] | log(activity) [8] | log(activity) [7] | SMILES
> 0.4 | – | – | – | – | – | – | – | – | – | Cc1ccc(-c2cnn(CCCCC(=O)O)c2)c(-c2ccc3c(c2)C(=O)N(C)C3)n1
– | 4.73 | 1.05 | 1.94 | 0.18 | 1.04 | – | – | – | – | COC(=O)CCCn1cc(-c2ccc(C)nc2-c2ccc3c(c2)C(=O)N(C)C3)cn1
> 0.4 | 4.57 | 0.73 | 1.46 | – | 1.08 | -0.28 | – | – | – | COC(=O)CCn1cc(-c2ccc(C)nc2-c2ccc3c(c2)C(=O)N(C)C3)cn1
– | 5.65 | 1.72 | 2.15 | 0.5 | 1.07 | – | – | – | – | Cc1ccc(-c2cnn(CC3CCCC3)c2)c(-c2ccc3c(c2)C(=O)NC3)n1
– | 4.73 | 2.17 | 2.53 | 1.17 | 2.12 | – | 0.08 | 2.3 | – | Cc1cnc(-c2ccc3c(c2)C(=O)N(C)C3)c(-c2cnn(CC3CCCC3)c2)c1
– | 4.71 | 1.3 | 1.92 | 0.1 | 0.74 | – | – | – | – | Cc1ncc(-c2cnn(CC3CCCC3)c2)c(-c2ccc3c(c2)C(=O)N(C)C3)n1
> 0.4 | 4.53 | 1.56 | 2.01 | 0.84 | 1.99 | – | – | 1.92 | -0.28 | CN1Cc2ccc(-c3nc4ccccc4cc3-c3cnn(CC4CCCC4)c3)cc2C1=O
> 0.4 | – | – | – | – | – | – | – | – | – | Cc1ccc(-c2cnn(CCC(N)=O)c2)c(-c2ccc3c(c2)C(=O)N(C)C3)n1
– | 4.79 | 0.85 | 1.56 | – | 0.44 | -0.47 | – | – | – | Cc1ccc(-c2cnn(CCCN)c2)c(-c2ccc3c(c2)C(=O)N(C)C3)n1
– | 5.86 | 1.58 | 1.74 | 0.25 | 0.53 | – | 0.02 | 1.89 | – | Cc1ccc(-c2cnn(CC3CCCC3)c2)c(-c2ccc3c(c2)C(=O)N(C)C3)n1
– | 5.26 | 1.55 | 1.94 | 0.48 | 1 | – | – | – | – | Cc1ccc(-c2cnn(CC3CCCC3)c2)c(-c2ccc3c(c2)C(=O)N(CC#N)C3)n1
> 0.4 | 4.74 | 0.88 | 1.49 | – | 0.84 | -0.64 | – | – | – | Cc1ccc(-c2cnn(CCC#N)c2)c(-c2ccc3c(c2)C(=O)N(C)C3)n1
> 0.4 | – | – | – | – | – | – | – | – | – | Cc1ccc(-c2cnn(CCCC(=O)O)c2)c(-c2ccc3c(c2)C(=O)N(C)C3)n1
– | 4.55 | 1.16 | 1.93 | 0.28 | 1.03 | – | – | – | – | Cc1ccc(-c2cnn(CCCCC#N)c2)c(-c2ccc3c(c2)C(=O)N(C)C3)n1
> 0.4 | – | – | – | – | – | – | – | – | – | COC(=O)CCCCn1cc(-c2ccc(C)nc2-c2ccc3c(c2)C(=O)N(C)C3)cn1
